Assay results taken from US12568967B2, “Compositions comprising pyridine carboxylate herbicides with synthetic auxin herbicides or auxin transport inhibitors” (priority 2018, dated 2026).
“And” between values parts separate entries of the source, which are not always exact repeats. Equal entries are not always repeated. Where two headings read alike, the source gives them in different places.

Tests used:
Format in all cases: in vivo
[1] = system: Capsella bursa-pastoris (shepherd's purse, CAPBP); experiment: Greenhouse postemergence trial CAPBP; conditions: CAPBP; for % visual injury, Obs: applied alone
Description: (§1) Seeds of the desired test plant species were planted in a 90:10% v/v (volume/volume) mixture of PRO-MIX® BX (Premier Tech Horticulture, Quakertown, PA, USA) and PROFILE® GREENS GRADE™ (Profile Products LLC, Buffalo Grove, IL, USA) planting mixture, which typically has a pH of 5.2 to 6.2 and an organic matter content of at least 50 percent, in plastic pots with a surface area of 103.2 square centimeters (cm^2). […] The plants were grown for 7-36 days (d) in a greenhouse with an approximate 14-hour (h) photo-period which was maintained at about 23° C. during the day and 22° C. during the night. Nutrients and water were added on a regular basis and supplemental lighting was provided with overhead metal halide 1000-Watt lamps as necessary. The plants were employed for testing when they reached the second or third true leaf stage.
(§2) Emulsifiable concentrates of each of each pyridine carboxylate herbicide (Compound A or Compound B) were prepared at 100 grams acid equivalent per liter (g ae/L). The emulsifiable concentrates also included a safener, cloquintocet-mexyl, at 120 grams active ingredient per liter (g ai/L), unless otherwise noted below. An aliquot of each emulsifiable concentrate was placed in a 25 mL glass vial and diluted with an aqueous mixture of 1.25% (v/v) ACTIROB® B esterified rapeseed oil (Bayer Crop Science, Research Triangle Park, NC, USA) or MSO® Concentrate with LECI-TECH® methylated soybean oil (Loveland Products, Loveland, CO, USA) to obtain concentrated stock solutions at the highest application rate for each herbicide, based upon a 12 milliliter (mL) application volume at a rate of 187 liters per hectare (L/ha). The concentrated stock solutions were further diluted with an aqueous mixture of 1.25% v/v ACTIROB® B or MSO® Concentrate with LECI-TECH® to obtain stock solutions at reduced application rates for each herbicide. Spray solutions of the herbicide combinations (Compound A or Compound B plus synthetic auxin herbicide or auxin transport inhibitor) were prepared by adding weighed amounts or aliquots of the synthetic auxin herbicide or auxin transport inhibitor to the stock solutions of Compound A or Compound B to form 12-mL spray solutions in two-way combinations.
(§3) The spray solutions were applied to the plant material with an overhead Mandel track sprayer equipped with 8002E nozzles calibrated to deliver 187 L/ha over an application area of 0.503 square meters (m^2) at a spray height of 18 inches (43 centimeters (cm)) above the average plant canopy. Control plants were sprayed in the same manner with the solvent blank. All pyridine carboxylate herbicide (component a) application rates are given as “g ae/ha” and all synthetic auxin herbicide or auxin transport inhibitor (component b) application rates are given as “g ai/ha.”
(§4) The treated plants and control plants were placed in a greenhouse as described above and watered by sub-irrigation to prevent wash-off of the test compounds. After 20-22 d, the condition of the test plants as compared with that of the control plants was determined visually and scored on a scale of 0 to 100 percent where 0 corresponds to no injury and 100 corresponds to complete kill.

[2] = system: Sinapis arvensis (wild mustard, SINAR); experiment: Greenhouse postemergence trial SINAR
[3] = system: Ipomoea hederacea (ivyleaf morningglory, IPOHE); experiment: Greenhouse postemergence trial IPOHE; conditions: Compound A 10 g/ha
[4] = system: Triticum aestivum (spring wheat, TRZAS)
[5] = system: Alopecurus myosuroides (blackgrass, ALOMY); experiment: Greenhouse postemergence trial ALOMY; conditions: Compound A 10 g/ha
Description: as §1
Emulsifiable concentrates of each of each pyridine carboxylate herbicide (Compound A or Compound B) were prepared at 100 grams acid equivalent per liter (g ae/L). The emulsifiable concentrates also included a safener, cloquintocet-mexyl, at 120 grams active ingredient per liter (g ai/L), unless otherwise noted below. An aliquot of each emulsifiable concentrate was placed in a 25 mL glass vial and diluted with an aqueous mixture of 1.25% (v/v) ACTIROB® B esterified rapeseed oil (Bayer Crop Science, Research Triangle Park, NC, USA) or MSO® Concentrate with LECI-TECH® methylated soybean oil (Loveland Products, Loveland, CO, USA) to obtain concentrated stock solutions at the highest application rate for each herbicide, based upon a 12 milliliter (mL) application volume at a rate of 187 liters per hectare (L/ha). The concentrated stock solutions were further diluted with an aqueous mixture of 1.25% v/v ACTIROB® B or MSO® Concentrate with LECI-TECH® to obtain stock solutions at reduced application rates for each herbicide. Spray solutions of the herbicide combinations (Compound A or Compound B plus synthetic auxin herbicide or auxin transport inhibitor) were prepared by adding weighed amounts or aliquots of the synthetic auxin herbicide or auxin transport inhibitor to the stock solutions of Compound A or Compound B to form 12-mL spray solutions in two-way combinations. […]
as §4

[6] = system: Chenopodium album L. (common lambsquarters, CHEAL); experiment: Greenhouse postemergence trial CHEAL;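 also: greenhouse plants sprayed at second to third true leaf stage, injury rated by eye after 20-22 d versus solvent-blank sprayed controls, 0 = no injury, 100 = complete kill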
[7] = system: Helianthus annuus (common sunflower, HELAN); experiment: Greenhouse postemergence trial HELAN; conditions: Compound A 10 g/ha
Description: as §1, §2, §3, §4

[8] = system: Setaria faberi (giant foxtail, SETFA); experiment: Greenhouse postemergence trial SETFA; conditions: Compound A 10 g/ha
Description: as §1, §2, §3, §4

[9] = system: Viola arvensis (field violet, VIOAR); experiment: Greenhouse postemergence trial VIOAR; conditions: VIOAR; for % visual injury Obs: alone
[10] = Triticum aestivum (spring wheat, TRZAS), in vivo

N#CCOC(=O)c1nc(-c2ccc3cc[nH]c3c2F)c(F)c(N)c1Cl [Compound A, cyanomethyl 4-amino-3-chloro-5-fluoro-6-(7-fluoro-1H-indol-6-yl)pyridine-2-carboxylate]
visual injury, Obs ([1]; Compound A 10 g/ha alone): 50% | visual injury, Obs ([1]; Compound A 15 g/ha alone): 85% | % visual injury (Obs) ([1]; alone 10 g/ha): 78% | % visual injury Obs ([1]; alone 10 g/ha): 50% | % visual injury Obs ([1]; alone, 15 g/ha): 85% | % visual injury, Obs ([1]; 10 g/ha): 50% | % visual injury, Obs ([1]; 15 g/ha): 85% | pest or weed control at […] ([1]; Capsella bursa-pastoris, post-emergence, Compound A 7.5 g/ha, read-out: % visual injury Obs): 50% | pest or weed control at 10 g/ha ([1]; Capsella bursa-pastoris, post-emergence, Compound A 10 g/ha, read-out: % visual injury Obs): 50% | pest or weed control at 15 g/ha ([1]; Capsella bursa-pastoris, post-emergence, Compound A 15 g/ha, read-out: % visual injury Obs): 85% | SINAR Obs (% visual injury) ([2]; Compound A 10 g/ha): 100% and 90% | SINAR % visual injury Obs ([2]; Compound A 10 g/ha (Table 42)): 100% | SINAR % visual injury Obs ([2]; Compound A 10 g/ha (Table 43)): 100% | SINAR % visual injury Obs ([2]; Compound A 10 g/ha (Table 44)): 100% | pest or weed control at […] ([2]; Mutarda arvensis, post-emergence, SINAR, Compound A 7.5 g/ha, read-out: % visual injury Obs): 90% | pest or weed control at 10 g/ha ([2]; Mutarda arvensis, post-emergence, SINAR, Compound A 10 g/ha, read-out: % visual injury Obs): 90% | pest or weed control at 15 g/ha ([2]; Mutarda arvensis, post-emergence, SINAR, Compound A 15 g/ha, read-out: % visual injury Obs): 100% | % visual injury Obs ([2]; SINAR, Compound A 10 g/ha): 90% | % visual injury, Obs ([2]; SINAR, Compound A 10 g/ha): 100% and 88% | visual injury, Obs ([2]; SINAR, Compound A 10 g/ha alone): 90% | visual injury, Obs ([2]; SINAR, Compound A 15 g/ha alone): 100% | % visual injury (Obs) ([2]; SINAR, alone, 10 g/ha): 90% and 88% | % visual injury Obs ([2]; SINAR, alone, 10 g/ha): 90% | % visual injury Obs ([2]; SINAR, alone, 15 g/ha): 100% | % visual injury, Obs ([2]; SINAR, applied alone, 10 g/ha): 90% and 88% | % visual injury, Obs ([2]; SINAR, applied alone, 15 g/ha): 100% | IPOHE Obs (% visual injury) ([3]; without safener): 15% | % visual injury, Obs ([3]; IPOHE): 15% | TRZAS Obs (% visual injury) ([4]; Compound A 10 g/ha): 0% | TRZAS % visual injury Obs ([4]; Compound A 10 g/ha (Table 42)): 0% | TRZAS % visual injury Obs ([4]; Compound A 10 g/ha (Table 43)): 0% | TRZAS % visual injury Obs ([4]; Compound A 10 g/ha (Table 44)): 0% | % visual injury Obs ([4]; TRZAS, Compound A 10 g/ha): 0% | % visual injury, Obs ([4]; TRZAS, Compound A 10 g/ha): 0% | visual injury, Obs ([4]; TRZAS, Compound A 10 g/ha alone): 0% | % visual injury Obs ([4]; TRZAS, Compound A 15 g/ha): 0% | visual injury, Obs ([4]; TRZAS, Compound A 15 g/ha alone): 0% | % visual injury (Obs) ([4]; TRZAS, alone 10 g/ha): 0% | % visual injury Obs ([4]; TRZAS, alone 10 g/ha): 0% | % visual injury Obs ([4]; TRZAS, alone, 15 g/ha): 0% | % visual injury, Obs ([4]; TRZAS, applied alone, 10 g/ha): 0% | % visual injury, Obs ([4]; TRZAS, applied alone, 15 g/ha): 0% | % visual injury (crop phytotoxicity) [4, 10]: 0% | % visual injury, Obs (crop phytotoxicity) [4, 10]: 0% | % visual injury (crop phytotoxicity) ([4]; c1-2 Compound A 7.5/10, c3 Quinclorac 140, c4-5 A 7.5/10 + Quinclorac 140 g/ha): 0% | % visual injury (crop phytotoxicity) ([4]; c1-3 Compound A 7.5/10/15, c4-5 Fluroxypyr-MHE 100/140, c6-8, c9-11 A 7.5/10/15 + Fluroxypyr-MHE 100, 140 g/ha): 0% | % visual injury (crop phytotoxicity) ([4]; c1-3 Compound A 7.5/10/15, c4 Aminopyralid 5, c5-7 A 7.5/10/15 + Aminopyralid 5 g/ha): 0% | % visual injury (crop phytotoxicity) ([4]; c1-3 Compound A 7.5/10/15, c4 Halauxifen-methyl 6, c5-7 A 7.5/10/15 + Halauxifen-methyl 6 g/ha): 0% | % visual injury, Obs ([5]; ALOMY): 0% | ALOMY Obs (% visual injury) ([5]; without safener): 0% | % visual injury, Obs ([6]; CHEAL, Compound A 10 g/ha): 88% and 78% | % visual injury (Obs) ([6]; CHEAL, alone 10 g/ha): 90% and 78% | % visual injury, Obs ([6]; CHEAL, applied alone, 10 g/ha): 80% | CHEAL Obs (% visual injury) ([6]; Compound A 10 g/ha): 88% and 90% | CHEAL % visual injury Obs ([6]; Compound A 10 g/ha (Table 42)): 88% | CHEAL % visual injury Obs ([6]; Compound A 10 g/ha (Table 43)): 88% | CHEAL % visual injury Obs ([6]; Compound A 10 g/ha (Table 44)): 88% | HELAN Obs (% visual injury) ([7]; without safener): 100% | % visual injury, Obs ([7]; HELAN): 100% | SETFA Obs (% visual injury) [8]: 70% | SETFA Obs (% visual injury) ([8]; without safener): 0% | % visual injury, Obs ([8]; SETFA): 0% | visual injury, Obs ([9]; Compound A 10 g/ha alone): 10% | visual injury, Obs ([9]; Compound A 15 g/ha alone): 15% | % visual injury Obs ([9]; 10 g/ha): 10% | % visual injury Obs ([9]; 15 g/ha): 15%
